Like-named read-outs stand apart in the source and are kept apart here.
Legend:
[1] = NO quantified by chemiluminescence during hydrolysis; assay type: physicochemical; conditions: 1 mM ferricyanide solution
Protocol: In addition to HNO measurements as described above by reductive nitrosylation of metmyoglobin, NO was quantified by chemiluminescence assay, N2O by gas chromatography, and nitrite ion by the Griess assay.
Detection of HNO was also carried out using the chemiluminescence method in, 1 mM ferricyanide solution.

A549 cells = experiment: Intracellular NO/HNO by DAF-FM diacetate in A549 cells; assay type: cell-based
Protocol: The intracellular NO and HNO were determined by using 4-amino-5-methylamino-2′,7′-difluorofluorescein diacetate (DAF-FM diacetate) as the reporter molecule. Cells were plated at a concentration of 30,000 cells per well in a 96 cell plate and grown overnight. Then DAF-FM diacetate in DMSO was added to each well with a final concentration of 10 μM and incubated for 30 min. Each well was washed three times with PBS pH 7.4. The desired compound was then added and the fluorescence was measured at an excitation of 485 nm and emission of 535 nm using PerkinElmer HTS 7000 plate reader.
Both NO and HNO increased the fluorescence of DAF. The NO/HNO release profiles for compounds 4 and 8 within A549 cells were determined by loading the cells with DAF-FM diacetate, a cell permeable dye, which is cleaved by esterase to form DAF-FM and reacts with NO to form benzotriazole derivative with an excitation of 495 nm and emission of 515 nm (Kojima et al., Chemical & Pharm. Bulletin, 462 373-75 (1998)). […] Both 4 and 8 show temporal release in the presence and absence of cells. […] Moreover, when DAF-FM diacetate is present both inside and outside the cells, the fluorescence intensity is ten times higher than that without cells.

HUVECs = experiment: MTT assay, normal endothelial cell line HUVECs; assay type: cell-based
Prostaglandin E2 = experiment: PGE2 production, prostaglandin E2 EIA kit; assay type: cell-based; conditions: 24 h
Protocol: Cells were plated at a concentration of 50,000 cells per well and grown overnight. Then 25, 50, and 100 μM of DMSO, IPA/NO-aspirin, and DEA/NO-aspirin were added to the corresponding well for 24 h and incubated at 37° C. The supernant was then analyzed for PGE2 activity using prostaglandin E2 EIA kit (Cayman Cat No. 514010).

MCF-7 cells = experiment: MTT cell survival, MCF-7; assay type: cell-based, human; conditions: MTT assay
Protocol: MDA-MB-231, MCF-7 and MDA-MB-468, human breast carcinoma cell lines and MCF-10A, breast […] (American Type Culture Collection, Manassas, Va.) were grown as monolayers in RPMI 1640 supplemented with 10% FCS (Hyclone), penicillin (50 units/ml), streptomycin ([…]; Life Technologies, Inc., Grand Island, N.Y.) and endothelial growth media (Lonanza) respectively. Cells were seeded at a density of 1×10^6 cells/100-cm^2 culture dish and incubated at 37° C. in 5% CO2 and 80% relative humidity. Single-cell suspensions were obtained by trypsinization (0.05% trypsin/EDTA), and cells were counted using a Beckman cell counter.
1000× stock solutions aspirin, of a DEA/NO-ASA, and IPA/NO-ASA were made in DMSO and final concentration in the media or PBS was adjusted to 0.1% DMSO.
The effect of NONO-aspirin on cell proliferation was studied using an MTT assay. The effect of DEA/NO-ASA, IPA/NO-ASA, aspirin, IPA/NO and DEA/NO was measured using the MTT assay. Cells were plated at a concentration of 8,000-10,000 cells per well in a 96 well plate and grown overnight. Cells were treated with different concentrations of the compounds and controls for 48 h. After 48 h, a solution of 5 mg/ml MTT was added to each well and incubated for 1 h. Then the media was removed from each well and 100 uL DMSO was added to each well and the absorbance was read at 550 nm. […]

caspase-3 = experiment: Caspase-3 fluorescence assay, MDA-MB-468; assay type: cell-based, human; conditions: 12 h
Protocol: The caspase-3 activity in the presence of IPA/NO-ASA and DEA/NO-ASA was measured using caspase-3 fluorescence assay kit (Cat No. 10009135, Cayman Chemical). Cells were plated at a concentration of 50,000 cells per well in a 96 well plate and grown overnight. Then the cells were treated with different concentrations of the compounds and controls for 12 h. After 12 h, the plate was centrifuged at 800 g and the media was removed by aspiration. 100 μL of lysis buffer was added to each well and the plate was incubated for […] at room temperature. 100 μL of a caspase-3 substrate solution was added to each well and incubated for 30 min after which the fluorescence was read at excitation of 485 nm and emission of 535 nm.

MDA-MB-231 cell line = experiment: Comet assay for DNA damage, MDA-MB-231; assay type: cell-based, human; conditions: 50 μM IPA/NO-aspirin, 75 μM DEA/NO-aspirin
Protocol: The pathological aspect of high ROS is the ability to cause oxidative damage to DNA. To further investigate this possibility, the effect of NONO-aspirin was studied on DNA damage using a comet assay in the MDA-MB-231 cell line.
Cells were plated at a concentration of 50,000 cells per well in a 12 well plate and grown overnight. Cells were treated with 50 μM IPA/NO-aspirin and 75 μM DEA/NO-aspirin for 12 h and the assay was conducted using a comet assay kit (Cat No. 4250-050-K, Trevigen, Md.) as described in the manufacturer's instructions.

[2] = tested on: MB-231 cells stably transfected with green fluorescent protein (GFP); experiment: Tumor size in nude mice implanted with MB-231-GFP cells; assay type: in vivo; conditions: daily injection for 5 weeks, equi-molar dosages, compared to control
Protocol: 40 Nude mice were implanted with 7.5E5 MB-231 cells stably transfected with green fluorescent protein (GFP) per animal and allowed to grow for 14 days. The animals were randomly divided into four groups: untreated as a control, aspirin treated, IPA/NO-aspirin and DEA/NO-aspirin. Treated groups were injected daily with equi-molar dosages of the corresponding compounds (DEA/NO-aspirin=16.25 mg/Kg, IPA/NO-aspirin=15.75 mg/Kg, Aspirin=9 mg/Kg) for the next 5 weeks daily and the tumor size was measured using in vivo fluorescent imaging for quantification of the GFP tag (FIG. 9A (mammary tumor) and FIG. 9B (brain tumor)). The animals were then sacrificed to assess their brain for metastasis.

Compound	NO/HNO release by chemiluminescence [1]	cell penetration (A549 cells)	cell penetration (A549 cells; listed as 8)	cell death in MTT assay (HUVECs)	Prostaglandin E2 (Prostaglandin E2; 25 μM) [pg/mL]	Prostaglandin E2 (Prostaglandin E2; 50 μM) [pg/mL]	Prostaglandin E2 (Prostaglandin E2; 100 μM) [pg/mL]	IC50 (MCF-7 cells) [µM]	Caspase-3 Activity (caspase-3; MDA-MB-468, 25 μM) [U/mL]	Caspase-3 Activity (caspase-3; MDA-MB-468, 50 μM) [U/mL]	Caspase-3 Activity (caspase-3; MDA-MB-468, 100 μM) [U/mL]	DNA damage (comet assay) (MDA-MB-231 cell line)	tumor size [2]	cell penetration (A549 cells; listed as 4)
CCN(CC)[N+]([O-])=NOCOC(=O)c1ccccc1OC(C)=O [DEA/NO-aspirin, O^2-(Acetylsalicyloyloxymethyl)-1-(N,N-Diethylamino)-diazen-1-ium-1,2-diolate]	shows NO release	permeated the cell membrane with minimal decomposition	penetrate the cells	No significant cell death	21	38	36	120	0.40	0.38	0.81	comparable to the DMSO treated control	effective in reducing the tumor size	–
CC(=O)Oc1ccccc1C(=O)OCON=[N+]([O-])NC(C)C [IPA/NO-aspirin, O^2-(Acetylsalicyloyloxymethyl)-1-(N-isopropylamino)-diazen-1-ium-1,2-diolate]	showed both NO and HNO release	permeated the cell membrane with minimal decomposition	–	No significant cell death	17	14	13	90	0.60	0.60	0.50	significant DNA damage	effective in reducing the tumor size	penetrate the cells

— patent US8633177B2, “Nitroxyl (HNO) releasing compounds and uses thereof in treating diseases” (The United States of America, as represented by the …, priority 2010, dated 2014)
